Earlier results as cited in patent publication US20050148519A1, “Salts of pharmacologically active compounds” (priority 2003, published 2005).

Assays:
[1] = dog, oral 2.2, 6.6 and 11.0 mg/kg
[2] = for Injection site reaction: intramuscular or subcutaneous for flunixin, route not given for the others

Row | SMILES | Side effects following oral dosing [1] | Injection site reaction [2] | Time flunixin is present in tissues at a pharmaceutically effective amount (injection in a conventional format) [h] | Flunixin serum concentration immediately following administration (single dose 1.1 mg/kg) [µg/mL] | Flunixin serum concentration within 4 hours of administration (single dose 1.1 mg/kg) | Time post administration to undetectable flunixin serum levels (single dose 1.1 mg/kg) [h] | Time for injection site reactions to dissipate ([2]; in vivo)
1 | Cc1c(Nc2ncccc2C(=O)O)cccc1C(F)(F)F [flunixin] | vomiting, diarrhea, blood in stools, and gastro-intestinal ulceration were common | can cause tissue damage | 6 to 12 | 8 to 13 | sub micro gram/mL | 6 to 12 | –
2 | CN(C)[C@@H]1C(O)=C(C(N)=O)C(=O)[C@@]2(O)C(O)=C3C(=O)c4c(O)cccc4[C@@](C)(O)[C@H]3[C@H](O)[C@@H]12 [Oxytetracyclines, oxytetracycline] | – | severe injection site inflammations and even necrosis | – | – | – | – | –
3 | CC[C@H]1OC(=O)C[C@@H](O)[C@H](C)[C@@H](O[C@@H]2O[C@H](C)[C@@H](O)[C@H](N(C)C)[C@H]2O)[C@@H](CCN2C[C@H](C)C[C@H](C)C2)C[C@@H](C)C(=O)/C=C/C(C)=C/[C@@H]1CO[C@@H]1O[C@H](C)[C@@H](O)[C@@H](OC)[C@H]1OC [tilmicosin] | – | mild injection site reactions | – | – | – | – | two to three days
